From the supplement of paper PMC4862054

Assays:
Conditions in all cases: incubation time: 72 h
CAL-85-1 [1] = experiment: normalised response (% of control), CellTox Green; higher = less cell death (100 = DMSO, 0 = benzethonium chloride kill control)
Outline: (§1)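 Each entry is the normalised signal at a single concentration within a series. The series comprised 5 concentrations in 10-fold steps over a compound-specific 10,000-fold range, placed in 384-well plates into which breast cancer cell lines were seeded as 20 µl suspension and incubated 72 h. CellTox Green (485/520 nm) fluorescence and then CellTiter-Glo luminescence were read, with signals normalised per plate to 0.1 % DMSO (100) and a positive kill control (0).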

MCF-10A [2] = experiment: as above
Outline: as §1

MDA-MB-436 [3] = experiment: as above
Outline: as §1

HCC1599 [4] = experiment: as above
Outline: as §1

MDA-MB-453 [5] = experiment: as above
Outline: as §1

HDQ-P1 [6] = experiment: as above
Outline: as §1

DU-4475 [7] = experiment: as above
Outline: as §1

CAL-148 [8] = experiment: as above
Outline: as §1

MDA-MB-468 [9] = experiment: as above
Outline: as §1

MFM-223 [10] = experiment: as above
Outline: as §1

BT-474 [11] = experiment: as above
Outline: as §1

CAL-120 [12] = experiment: as above
Outline: as §1

CAL-51 [13] = experiment: as above
Outline: as §1

Hs578T [14] = experiment: as above
Outline: as §1

MDA-MB-231 [15] = experiment: as above
Outline: as §1

SK-BR-3 = experiment: normalised response (% of control), CellTiter-Glo; higher = more viable cells (100 = DMSO, 0 = benzethonium chloride kill control)
Description: (§2)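 DSRT, 72 h incubation, CellTox Green / CellTiter-Glo readout. Signal is normalised to DMSO and benzethonium chloride controls. Value is the normalised response at the highest dose.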

CAL-85-1 [16] = experiment: as above
Description: as §2

HCC1937 [17] = experiment: as above
Description: as §2

MCF-10A [18] = experiment: as above
Description: as §2

MDA-MB-436 [19] = experiment: as above
Description: as §2

HCC1599 [20] = experiment: as above
Description: as §2

MDA-MB-453 [21] = experiment: as above
Description: as §2

HDQ-P1 [22] = experiment: as above
Description: as §2

HCC1143 [23] = experiment: as above
Description: as §2

DU-4475 [24] = experiment: as above
Description: as §2

CAL-148 [25] = experiment: as above
Description: as §2

MDA-MB-468 [26] = experiment: as above
Description: as §2

MFM-223 [27] = experiment: as above
Description: as §2

BT-474 [28] = experiment: as above
Description: as §2

CAL-120 [29] = experiment: as above
Description: as §2

CAL-51 [30] = experiment: as above
Description: as §2

Hs578T [31] = experiment: as above
Description: as §2

MDA-MB-231 [32] = experiment: as above
Description: as §2

BT-549 [33] = experiment: as above
Description: as §2

HCC1937 [34] = experiment: normalised response (% of control), CellTox Green; higher = less cell death (100 = DMSO, 0 = benzethonium chloride kill control)
Outline: as §1

HCC1143 [35] = experiment: as above
Outline: as §1

BT-549 [36] = experiment: as above
Outline: as §1

Row | SMILES | normalised response (CAL-85-1 [1]) | normalised response (MCF-10A [2]) | normalised response (MDA-MB-436 [3]) | normalised response (HCC1599 [4]) | normalised response (MDA-MB-453 [5]) | normalised response (HDQ-P1 [6]) | normalised response (DU-4475 [7]) | normalised response (CAL-148 [8]) | normalised response (MDA-MB-468 [9]) | normalised response (MFM-223 [10]) | normalised response (BT-474 [11]) | normalised response (CAL-120 [12]) | normalised response (CAL-51 [13]) | normalised response (Hs578T [14]) | normalised response (MDA-MB-231 [15]) | normalised response (SK-BR-3) | normalised response (CAL-85-1 [16]) | normalised response (HCC1937 [17]) | normalised response (MCF-10A [18]) | normalised response (MDA-MB-436 [19]) | normalised response (HCC1599 [20]) | normalised response (MDA-MB-453 [21]) | normalised response (HDQ-P1 [22]) | normalised response (HCC1143 [23]) | normalised response (DU-4475 [24]) | normalised response (CAL-148 [25]) | normalised response (MDA-MB-468 [26]) | normalised response (MFM-223 [27]) | normalised response (BT-474 [28]) | normalised response (CAL-120 [29]) | normalised response (CAL-51 [30]) | normalised response (Hs578T [31]) | normalised response (MDA-MB-231 [32]) | normalised response (BT-549 [33]) | normalised response (HCC1937 [34]) | normalised response (HCC1143 [35]) | normalised response (BT-549 [36])
1 | CCn1c(C(=O)N(C2CC2)C2CC2)cc2c3c(ncn3C)c(Nc3cc(C)n(C)n3)nc21 (10000 nM) | 102% | 109% | 88.1% | 94% | 97.7% | 105% | 98.5% | 93% | 80.7% | 94.3% | 103% | 103% | 99.5% | 89.6% | 113% | 93.2% | 99.5% | 92.8% | 86.6% | 93.6% | 123% | 97% | 101% | 93.2% | 97.9% | 103% | 94.4% | 83.1% | 83.3% | 102% | 106% | 96% | 82.2% | 102% | – | – | –
2 | CN[C@@H](C)C(=O)N[C@H]1CN(C(=O)CC(C)C)CC[C@H]2CC[C@@H](C(=O)NC(c3ccccc3)c3ccccc3)N2C1=O [AT-406] (10000 nM) | 0.8% | 112% | 85.5% | 97.5% | 93.2% | – | 95.4% | 66.9% | 57.3% | 103% | 89.4% | 41.2% | 83% | 92.7% | -35.9% | 89.6% | 41.9% | 88% | 106% | 93.2% | 97.5% | 58.1% | 84.5% | 85.5% | 97.9% | 91.2% | 65.1% | 102% | 16.4% | 61.1% | 90.8% | 94.1% | 14.2% | 64.9% | 84.8% | 108% | 83.8%
3 | CCN(CC)CCCC(C)Nc1ccnc2cc(Cl)ccc12 (centres undefined) [Chloroquine] (100000 nM) | -51.4% | -62.8% | 42.2% | 57% | 1.49% | 23% | 48.9% | 24.9% | -27.6% | 0.04% | -2.97% | 8.39% | 28.5% | -118% | -46.1% | 0.25% | 0.53% | 3.72% | 1.88% | 1.76% | 0.3% | 0.26% | 0.97% | 22.8% | 0.38% | 0.47% | 1.06% | 0.63% | 2.13% | 7.89% | 1.42% | 0.3% | 0.24% | 0.71% | 18.7% | 67.2% | 30.4%
4 | CC1(COc2ccc3c(c2)ncn3-c2ccc3cccc(N4CCC(N)CC4)c3n2)COC1 [Crenolanib] (10000 nM) | -25.9% | -4.14% | 36.1% | 81.5% | 78.5% | 39.2% | 63.6% | -15.7% | 131% | 93.4% | 17.5% | 74.8% | 30.6% | 103% | -59% | 2.13% | 1.52% | 52.4% | 10.4% | 7.1% | 60.6% | 15.6% | 13.9% | 75.8% | 25% | 8.15% | 12.9% | 61.4% | 3.8% | 52.4% | 7.22% | 27.5% | 0.75% | 20.6% | 87.1% | 55.7% | 28.9%
5 | O=C(O)CNC(=O)c1c(O)c2ccccc2n(Cc2ccccc2)c1=O [IOX-2] (50000 nM) | 105% | 107% | 67% | 102% | – | – | 97.8% | 101% | 133% | 103% | 102% | 101% | 84.3% | 113% | 100% | 94% | 93.9% | 98.2% | 102% | 62.9% | 97.3% | 103% | 91.1% | 92.6% | 98.3% | 97.8% | 92.2% | 98.2% | 85.9% | 95.3% | 71.1% | 103% | 85.1% | 86.4% | 91.5% | 104% | 73.6%
